Measurements as given in article PMC3169616, “Unique Residues Involved in Activation of the Multitasking Protease/Chaperone HtrA from Chlamydia trachomatis” (PLoS ONE, 2011).

Columns and labels:
Test in all cases: Act1 activation of Bcas1 proteolysis by mutated protein
Type in all cases: biochemical, Chlamydia trachomatis
CtHtrA R373A = conditions: R373A mutant; Act1 120 µM
Description: (§1) The hexameric CtHtrA molecular model was examined to identify the putative PDZ1 activator binding cleft (Fig. 4). The base of this cleft in CtHtrA is a hydrophobic pocket formed by the residues L302 and I365 (V328 in E. coli DegP) (Fig. 4). L302 and I365 were targeted for site directed mutagenesis (L302N and I365D) to make this non-polar pocket either polar or charged. The role of a potential conformational change caused by movement of the whole PDZ1 domain relative to the protease subunit was also tested by mutating a highly conserved arginine residue (R299W) on the flexible loop between the protease and PDZ domains. This mutation was made in order to alter the flexibility around this residue while occupying a similar sized area. Additionally, a second mutation was made in conjunction with the R299W mutation on the residue R373A which potentially forms a salt bridge between the PDZ domain and protease domain. This double mutation was made in order to reduce the flexibility and disrupt the mobile salt bridge involved in the PDZ1:protease domain interface. The R373A mutation was also made independently of R299W. These mutated proteins were assayed to examine the impact of the changes on Act1 activation on the Bcas1 substrate proteolysis. […]
(§2) The purified recombinant protein was examined by Coomassie stained polyacrylamide gels and activity was checked using ß-casein cleavage assays prior to use in peptide assays. […] Protease assays using pNA labelled peptides were conducted using the xMARK Microplate spectrophotometer (Bio-Rad) at 405 nm, incubated at 37°C, with a reading taken every 10 s for 30 min. The maximum slope over a minimum of 8 readings was used for the data analysis. […] The assays were excited at 340 nm and emission was detected at 405 nm with a gain of 1000, the assays were monitored every 20 s or at the minimum cycle time for up to 40 min. […] The assay results shown for the fluorescent compounds have been normalised for the amount of fluorescent emission detected using a standard curve of known concentrations of the MCA fluorophore under the identical assay conditions. […]

CtHtrA R299W/R373A = conditions: R299W/R373A mutant; Act1 120 µM
Description: as §1, §2

CtHtrA I365D = conditions: I365D mutant; Act1 120 µM
Description: as §1, §2

Measured: effect of Act1 on Bcas1 proteolysis rate

H-VLGPVRGPFPIIV-OH [Act1]
failed to increase the proteolysis rate: CtHtrA R373A | CtHtrA R299W/R373A | CtHtrA I365D
